Reference: patent US4808609A, “Amino-(hydroxy)alkoxy-4-phenylpropyl indoles having antiarrythmic activity” (Roussel Uclaf, priority 1985, dated 1989)

Experiments:
Caudal arteries of rats = assay: Anti-calcic activity in vitro (inhibition of K+ depolarization contraction of caudal arteries of rats); assay type: cell-based; conditions: rat caudal artery spirals, 100 mM K+, Ca2+ 0.1 to 3.0 mM, 37° C.; read-out: IC 50 (inhibits by 50% the contraction due to the K+ ions)
Protocol: Caudal arteries of rats were cut into spirals and attached to tension indicators and were kept in tanks of 25 ml of Krebs buffer-sodium bicarbonate (NaCl: 120.8 mM, KCl: 5.9 mM, MgCl2 : 1.2 mM, NaH2 PO4 : 1.2 mM, NaHCO3 : 15.5 mM, glucose: 12.6 mM) at 37° C. gassed with a mixture of O2 : 95%--CO2 --5%. The preparations were depolarized by a buffer solution with a concentration of 100 mM of K^+ ions (NaCl: 26.7 mM, KCl: 100 mM, MgCl2 1.2 mM, NaH2 PO4 : 1.3 mM, NaHCO3 : 15.5 mM, glucose: 12.6 mM).
250 μl of solutions of calcium chloride were added so that an increasing range of concentrations of Ca^2+ ions going from 0.1 to 3.0 mM was obtained. The contractions of the arteries were recorded and in this way a control range was established. The operation was repeated with the range of Ca^2+ ions every 15 minutes, and the preparation was washed four times after each range. When a stable response was obtained, the operation was carried out with the ranges of Ca^2+ ions in the presence of different concentrations of the product under test until a stable response was obtained.
The contractions of the arteries depend on the entry of the Ca^2+ ions into the cells of the smooth muscles and they are caused by the depolarization of the smooth muscle by the K^+ ions by the action of the noradrenaline liberated at the presynaptic level. By repeating the operation with the arteries denervated by the action of 6-OH dopamine, the action due to the noradrenaline alone is suppressed.
The results are expressed in IC 50 (inhibiting concentration 50) which is the concentration of the product under test which inhibits by 50% the contraction due to the K^+ ions.

[1] = test system: disturbances of the cardiac rhythm (aconitine); assay: Anti-arrhythmic activity in the rat (aconitine-induced cardiac rhythm disturbances); assay type: in vivo
Protocol: Male rats weighing 300-350 g anesthetized intraperitoneally with 1.20 g/kg of urethane were tracheotomized and subjected to artificial respiration (40-50 breaths of 3 ml/minute). Needles were implanted subcutaneously to record the eletrocardiogram of the rats on the derivation signal DII. The products under test were administered intravenously or orally. Five minutes after the administration of the product intravenously or 1 hour after administration orally, the jugular vein of the rats was perfused with 10 μg/min. of an aconitine solution and the time was noted of the appearance of disturbances of the cardiac rhythm (10 μg of aconitine corresponding to the perfusion of a volume of 0.2 ml of solution. The results were expressed as a percentage of the extension of the time of appearance of the cardiac rhythm disturbances as compared to controls and as a function of the dose of the product under test.

mice = assay: Study of the acute toxicity (oral, mice); assay type: in vivo
Protocol: The lethal doses LD0 were evaluated for the different compounds tested after oral administration to mice.

[2] = IV, 0.5 mg/kg, aconitine five minutes after administration
[3] = IV, 2.5 mg/kg, aconitine five minutes after administration
[4] = oral, 10 mg/kg, aconitine 1 hour after administration

`CCCNCC(O)COc1ccccc1C(=O)CCc1cccc2[nH]ccc12` (stereo not shown) [Example 2, (E) butenedioate (1,2) 1-[2-[2-hydroxy-3-propylamino-propoxy]-phenyl]-3-(1H-indol-4-yl)-1-propanone] was tested, and the IC50 (Caudal arteries of rats) was 3.8 µM, the “% extension of time of appearance of cardiac rhythm disturbances” value (from here on “% extension”) ([1]; IV, 1 mg/kg, aconitine five minutes after administration) was 32% and the “LD0 (maximum dose which does not cause any mortality in 8 days)” value (mice) was 100 mg/kg.
For `CCCNCC(O)COc1ccccc1CCCc1cccc2c1CC(=O)N2` (stereo not shown) [Example 9, 1,3-dihydro-4-[3-[2-[2-hydroxy-3-propylamino-propoxy]-phenyl]-propyl]-2H-indol-2-one], the “% extension” value [1, 2] was 45%.
In the case of `CCCNCC(O)COc1ccccc1C(=O)CCc1cccc2c1CC(=O)N2` (stereo not shown) [Example 6, 1,3-dihydro-4-[3-oxo-3-[2-(2-hydroxy-3-propylamino-propoxy)-phenyl]-propyl]-2H-indol-2-one], the IC50 (Caudal arteries of rats) is reported as 3.6 µM, the “% extension” value ([1]; IV, 0.25 mg/kg, aconitine five minutes after administration) is reported as 31% and the “LD0 (maximum dose which does not cause any mortality in 8 days)” value (mice) is reported as 100 mg/kg.
In the case of `CCCNCC(O)COc1ccccc1CCCc1cccc2[nH]ccc12` (stereo not shown) [Example 8, 1-[2-[3-(1H-indol-4-yl)-propyl]-phenoxy]-3-propylamino-2-propanol], the IC50 (Caudal arteries of rats) is reported as 1.4 µM, the “% extension” value [1, 3] is reported as 25.5% and the “LD0 (maximum dose which does not cause any mortality in 8 days)” value (mice) is reported as greater than 400 mg/kg.
`CC(C)(C)NCC(O)COc1ccccc1C(=O)CCc1cccc2c1CC(=O)N2` (stereo not shown) [Example 5, 1,3-dihydro-4-[3-[2-[3-(1,1-dimethylethylamino)-2-hydroxypropoxy]-phenyl]-3-oxo-propyl]-2H-indol-2-one] was tested, and the “% extension” value [1, 2] was 66%, the “% extension” value [1, 4] was 47% and the “LD0 (maximum dose which does not cause any mortality in 8 days)” value (mice) was greater than 400 mg/kg.
With `CC(C)(C)NCC(O)COc1ccccc1CCCc1cccc2[nH]ccc12` (stereo not shown) [Example 7, 1-(1,1-dimethylethylamino)-3-[2-[3-(1H-indol-4-yl)-propyl]-phenoxy]-2-propanol] the IC50 (Caudal arteries of rats) was 0.64 µM, the “% extension” value [1, 3] was 41% and the “LD0 (maximum dose which does not cause any mortality in 8 days)” value (mice) was greater than 400 mg/kg.
In the case of `CC(C)(C)NCC(O)COc1ccccc1C(=O)CCc1cccc2[nH]ccc12` (stereo not shown) [Example 1, (E) butenedioate (1,2) of 1-[2-[3-(1,1-dimethylethylamino)-2-hydroxypropoxy]-phenyl]-3-(1H-indol-4-yl)-1-propanone], the IC50 (Caudal arteries of rats) is reported as 0.4 µM, the “% extension” value [1, 2] is reported as 28% and the “% extension” value ([1]; oral, 5 mg/kg, aconitine 1 hour after administration) is reported as 41%. The “% extension” value [1, 4] was 39%, the “% extension” value ([1]; oral, 25 mg/kg, aconitine 1 hour after administration) was 142% and the “LD0 (maximum dose which does not cause any mortality in 8 days)” value (mice) was 100 mg/kg.
